Measured values from PubChem BioAssay AID330 (DTP/NCI, 2004).
Where “and” joins values, the source holds several entries; their conditions need not be identical. Equal entries are not always repeated. Inconclusive results and toxic doses are left out.

Tested on: P388 leukemia ip, CD2F1 mice, survival T/C
Assay: NCI In Vivo Anticancer Drug Screen. Data for tumor model P388 Leukemia (intraperitoneal) in CD2F1 (CDF1) mice
Settings: endpoint: median survival time, higher = longer survival
Procedure, shortened: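 Mice carrying the transplanted tumor received test compound or vehicle. Survival was recorded in each group, and the value is the treated-group measurement divided by that of the vehicle-treated control group.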

[1] = dose: 25.0 mg/kg/injection, schedule: Q01DX009 (ip), vehicle: saline with Tween-80
[2] = dose: 50.0 mg/kg/injection, schedule: Q01DX009 (ip), vehicle: saline with Tween-80
[3] = dose: 100.0 mg/kg/injection, schedule: Q01DX009 (ip), vehicle: saline with Tween-80

For `CNc1cc(C)c2ccc(N(C)C)cc2n1`, the T/C (dose: 7.5 mg/kg/injection, schedule: Q01DX005 (ip), vehicle: Klucel (hydroxypropylcellulose) (HPC)) was 98 % of control, the T/C (dose: 15.0 mg/kg/injection, schedule: Q01DX005 (ip), vehicle: Klucel (hydroxypropylcellulose) (HPC)) was 102 % of control and the T/C (dose: 30.0 mg/kg/injection, schedule: Q01DX005 (ip), vehicle: Klucel (hydroxypropylcellulose) (HPC)) was 101 % of control. The T/C (dose: 60.0 mg/kg/injection, schedule: Q01DX005 (ip), vehicle: Klucel (hydroxypropylcellulose) (HPC)) was 93 % of control.
For `CSC(SC)(SC)C(=O)N(C)C`, the T/C [1] was 95 % of control, the T/C [2] was 93 % of control and the T/C [3] was 96 % of control.
With `O=C(Nc1ccc(Br)cc1C(F)(F)F)O/N=C(\c1ccccc1)C(O)c1ccccc1` (stereo unspecified) the T/C [2] was 101 % of control, the T/C [3] was 96 % of control and the T/C (dose: 200.0 mg/kg/injection, schedule: Q01DX009 (ip), vehicle: saline with Tween-80) was 100 % of control.
`O=C1NC(=O)C(C23CCN(CC2)CC3)N1` (stereo unspecified) was tested, and the T/C (dose: 100.0 mg/kg/injection, schedule: Q04DX003 (ip), vehicle: saline) was 101 % of control, the T/C (dose: 200.0 mg/kg/injection, schedule: Q04DX003 (ip), vehicle: saline) was 100 % of control and the T/C (dose: 400.0 mg/kg/injection, schedule: Q04DX003 (ip), vehicle: saline) was 107 % of control.
In the case of `CS(C)=O`, the T/C (dose: 93.75 mg/kg/injection, schedule: Q01DX009 (ip), vehicle: saline) is reported as 109 % of control, the T/C (dose: 187.5 mg/kg/injection, schedule: Q01DX009 (ip), vehicle: saline) is reported as 107 % of control and the T/C (dose: 375.0 mg/kg/injection, schedule: Q01DX009 (ip), vehicle: saline) is reported as 98 % of control. The T/C (dose: 750.0 mg/kg/injection, schedule: Q01DX009 (ip), vehicle: saline) was 109 % of control, the T/C (dose: 1500.0 mg/kg/injection, schedule: Q01DX009 (ip), vehicle: saline) was 104 % of control and the T/C (dose: 1.5 grams/kg/injection, schedule: Q01DX001 (ip), vehicle: saline) was 99 % of control and 101 % of control. For the same compound, the T/C (dose: 1.5 grams/kg/injection, schedule: Q01DX009 (ip), vehicle: saline) was 101 % of control and 109 % of control, the T/C (dose: 2.0 % in 0.5 ml injection vol, schedule: Q01DX009 (ip), vehicle: water) was 103 % of control and 95 % of control and the T/C (dose: 3000.0 mg/kg/injection, schedule: Q01DX001 (ip), vehicle: water) was 104 % of control. The T/C (dose: 3000.0 mg/kg/injection, schedule: Q01DX009 (ip), vehicle: saline) was 95 % of control, the T/C (dose: 3.0 grams/kg/injection, schedule: Q01DX001 (ip), vehicle: saline) was 104 % of control and 106 % of control and the T/C (dose: 3.0 grams/kg/injection, schedule: Q01DX009 (ip), vehicle: saline) was 96 % of control. For the same compound, the T/C (dose: 3.1 grams/kg/injection, schedule: Q01DX009 (ip), vehicle: water) was 101 % of control, the T/C (dose: 4.0 % in 0.5 ml injection vol, schedule: Q01DX009 (ip), vehicle: water) was 112 % of control and 94 % of control and the T/C (dose: 6000.0 mg/kg/injection, schedule: Q01DX001 (ip), vehicle: water) was 99 % of control. The T/C (dose: 6.0 grams/kg/injection, schedule: Q01DX001 (ip), vehicle: saline) was 95 % of control and 98 % of control, the T/C (dose: 6.0 grams/kg/injection, schedule: Q01DX009 (ip), vehicle: saline) was 100 % of control and 106 % of control and the T/C (dose: 6.2 grams/kg/injection, schedule: Q01DX009 (ip), vehicle: water) was 97 % of control. The T/C (dose: 6.25 % in 0.5 ml injection vol, schedule: Q01DX009 (ip), vehicle: water) was 103 % of control, the T/C (dose: 8.0 % in 0.5 ml injection vol, schedule: Q01DX009 (ip), vehicle: water) was 103 % of control and 112 % of control and the T/C (dose: 12000.0 mg/kg/injection, schedule: Q01DX001 (ip), vehicle: water) was 101 % of control. For the same compound, the T/C (dose: 12.0 grams/kg/injection, schedule: Q01DX001 (ip), vehicle: saline) was 104 % of control and 96 % of control, the T/C (dose: 12.5 % in 0.5 ml injection vol, schedule: Q01DX009 (ip), vehicle: water) was 110 % of control and the T/C (dose: 12.5 grams/kg/injection, schedule: Q01DX009 (ip), vehicle: water) was 108 % of control. For the same compound, the T/C (dose: 16.0 % in 0.5 ml injection vol, schedule: Q01DX009 (ip), vehicle: water) was 102 % of control and 105 % of control and 112 % of control, the T/C (dose: 24.0 grams/kg/injection, schedule: Q01DX001 (ip), vehicle: saline) was 37 % of control and 39 % of control and the T/C (dose: 25.0 % in 0.5 ml injection vol, schedule: Q01DX009 (ip), vehicle: water) was 117 % of control. For the same compound, the T/C (dose: 32.0 % in 0.5 ml injection vol, schedule: Q01DX009 (ip), vehicle: water) was 111 % of control and 121 % of control.
`O=S(=O)(O)O.[Cu+2].[NH-]CCCCC[NH-].[NH-]CCCCC[NH-]` was tested, and the T/C (dose: 1.56 mg/kg/injection, schedule: Q04DX002 (ip), vehicle: Klucel (hydroxypropylcellulose) (HPC)) was 100 % of control, the T/C (dose: 3.12 mg/kg/injection, schedule: Q04DX002 (ip), vehicle: Klucel (hydroxypropylcellulose) (HPC)) was 98 % of control and the T/C (dose: 6.25 mg/kg/injection, schedule: Q04DX002 (ip), vehicle: Klucel (hydroxypropylcellulose) (HPC)) was 100 % of control. The T/C (dose: 12.5 mg/kg/injection, schedule: Q04DX002 (ip), vehicle: Klucel (hydroxypropylcellulose) (HPC)) was 88 % of control and 98 % of control.
With `O=C/C=C/c1ccc([N+](=O)[O-])cc1Cl` the T/C [1] was 104 % of control, the T/C [2] was 106 % of control and the T/C (dose: 50.0 mg/kg/injection, schedule: Q01DX009 (ip), vehicle: saline) was 115 % of control. For the same compound, the T/C [3] was 106 % of control, the T/C (dose: 100.0 mg/kg/injection, schedule: Q01DX009 (ip), vehicle: saline) was 124 % of control and the T/C (dose: 200.0 mg/kg/injection, schedule: Q01DX009 (ip), vehicle: saline) was 124 % of control.
In the case of `Nc1cnns1`, the T/C (dose: 11.25 mg/kg/injection, schedule: Q01DX009 (ip), vehicle: water) is reported as 100 % of control, the T/C (dose: 22.5 mg/kg/injection, schedule: Q01DX009 (ip), vehicle: water) is reported as 102 % of control and the T/C (dose: 45.0 mg/kg/injection, schedule: Q01DX009 (ip), vehicle: water) is reported as 105 % of control. For the same compound, the T/C (dose: 90.0 mg/kg/injection, schedule: Q01DX009 (ip), vehicle: water) was 119 % of control and the T/C (dose: 180.0 mg/kg/injection, schedule: Q01DX009 (ip), vehicle: water) was 105 % of control.
With `CN(C)N=Nc1ccc(NC(N)=O)cc1` the T/C (dose: 100.0 mg/kg/injection, schedule: Q04DX003 (ip), vehicle: saline + Tween-80 + alcohol) was 154 % of control.
`COc1cccc2c1cc([N+](=O)[O-])c1c(C(=O)O)cc3c(c12)OCO3` was tested, and the T/C (dose: 2.5 mg/kg/injection, schedule: Q01DX009 (ip), vehicle: Klucel (hydroxypropylcellulose) (HPC)) was 118 % of control, the T/C (dose: 2.5 mg/kg/injection, schedule: Q01DX009 (ip), vehicle: saline) was 108 % of control and the T/C (dose: 5.0 mg/kg/injection, schedule: Q01DX009 (ip), vehicle: Klucel (hydroxypropylcellulose) (HPC)) was 118 % of control. The T/C (dose: 5.0 mg/kg/injection, schedule: Q01DX009 (ip), vehicle: saline) was 117 % of control and the T/C (dose: 10.0 mg/kg/injection, schedule: Q01DX009 (ip), vehicle: saline) was 117 % of control.
For `Cc1noc2nccnc12`, the T/C (dose: 25.0 mg/kg/injection, schedule: Q04DX003 (ip), vehicle: saline with Tween-80) was 100 % of control, the T/C (dose: 50.0 mg/kg/injection, schedule: Q04DX003 (ip), vehicle: saline with Tween-80) was 91 % of control and the T/C (dose: 100.0 mg/kg/injection, schedule: Q04DX003 (ip), vehicle: saline with Tween-80) was 91 % of control.
`NCC1=NCCN1` was tested, and the T/C (dose: 60.0 mg/kg/injection, schedule: Q01DX005 (ip), vehicle: saline) was 92 % of control, the T/C (dose: 120.0 mg/kg/injection, schedule: Q01DX005 (ip), vehicle: saline) was 99 % of control and the T/C (dose: 240.0 mg/kg/injection, schedule: Q01DX005 (ip), vehicle: saline) was 94 % of control.
For `O`, the T/C (dose: 0.01 % in 0.5 ml injection vol, schedule: Q01DX009 (ip), vehicle: water) was 92 % of control, the T/C (dose: 0.02 % in 0.5 ml injection vol, schedule: Q01DX009 (ip), vehicle: water) was 100 % of control and 95 % of control and the T/C (dose: 0.04 % in 0.5 ml injection vol, schedule: Q01DX009 (ip), vehicle: water) was 105 % of control. The T/C (dose: 0.08 % in 0.5 ml injection vol, schedule: Q01DX009 (ip), vehicle: water) was 100 % of control, the T/C (dose: 100.0 mg/kg/injection, schedule: Q01DX009 (ip), vehicle: acetone) was 95 % of control and the T/C (dose: 200.0 mg/kg/injection, schedule: Q01DX009 (ip), vehicle: acetone) was 90 % of control. For the same compound, the T/C (dose: 400.0 mg/kg/injection, schedule: Q01DX009 (ip), vehicle: acetone) was 100 % of control, the T/C (dose: 1:0.5 dilution, schedule: Q01DX005 (ip), vehicle: none) was 112 % of control and the T/C (dose: 1:1.0 dilution, schedule: Q01DX005 (ip), vehicle: none) was 100 % of control. For the same compound, the T/C (dose: 1:2.0 dilution, schedule: Q01DX005 (ip), vehicle: none) was 114 % of control.
With `N#CCCSC(=S)N1CCN(C(=S)SCCC#N)C1=O` the T/C (dose: 50.0 mg/kg/injection, schedule: Q01DX005 (ip), vehicle: saline with Tween-80) was 92 % of control, the T/C (dose: 100.0 mg/kg/injection, schedule: Q01DX005 (ip), vehicle: saline with Tween-80) was 87 % of control and the T/C (dose: 200.0 mg/kg/injection, schedule: Q01DX005 (ip), vehicle: saline with Tween-80) was 92 % of control.
